14 molecules from patent publication US20260258048A1, “LACTAM-CONTAINING IMIDAZOPYRIDAZINE IL-17 INHIBITOR COMPOUNDS” (Janssen Pharmaceutica NV, priority 2023, published 2026) can be followed below.

The target in test [1] is IL-17A(FLAG-tagged): IL-17RA(His-tagged) (Homo sapiens, UniProt Q16552, K93Q). Nature of the test: IL-17A(FLAG-tagged): IL-17RA(His-tagged) binding disruption Eu-HTRF assay. From the text: IL-17A(FLAG-tagged): IL-17RA(His-tagged) binding disruption Eu-HTRF assay An antibody directed against the FLAG tag of IL-17A (SEQ ID NO: 1) is labeled with the HTRF donor chromophore (Europium-cryptate). IL-17A is present as a dimer that is “locked into” this quaternary structure due to the formation of loop-spanning intramolecular disulfide bridges. The construct of IL-17RA used in the assay excludes the […] portion of the receptor and is fused to a C-terminal 10×His tag (SEQ ID NO:2). An antibody directed against the His tag of the IL-17RA chimera is labeled with the HTRF acceptor chromophore (“D2”). The fluorescence-resonance energy transfer (FRET) depends on the vicinity of the donor chromophore to the acceptor, and interruption of the binding between the IL-17A and IL-17RA causes the reduction/loss of FRET. Therefore, this assay allows to evaluate the compound effect on the binding IL-17A and IL-17RA by monitoring the fluorescence intensity of donor vs acceptor. The assay is run as described below.
40 nl of 2-fold serial diluted compound solution for total 22 dilution points is added into each well of a 1536-well, white, low-volume, non-binding plate (Greiner #782904), then 2 μl of FLAG tagged IL-17A at 2× final concentration (1 μM) in solution of PBS+0.01% Triton-X100 is added to each well. The assay plate is briefly centrifuged then incubated for 1 h at rt. A mixed solution is prepared containing 2×5 nM 10HIS×IL-17RA, 2×2.5 nM Eu-anti-FLAG (CISBIO), 2×5 nM D2-anti-HIS (CISBIO) in PBS+0.01% Triton-X100+200 mM Potassium Fluoride (Sigma 60238) and 2 μl of mix is added to each well of the assay plate. The plate is briefly centrifuged then incubated for 2 h at rt. The HTRF intensities at the wavelength of donor (615 nm) and acceptor (665 nm) are measured using BMG Pherastar. The ratio between intensities at two wavelengths is calculated and plotted against the compound concentration and the data is fitted to a one-site competition model to yield IC50 of the compound.

Test [2] has as its system IL-17A-induced G-CSF production in human normal keratinocyte (NHK). Nature of the test: NHK assay: IL-17A-induced G-CSF production in normal human keratinocytes. The test is classed as cell-based. The settings on record: 24 h, IL-17A 5 ng/mL. The method, then:
IL-17A acts directly on keratinocytes through binding to dimeric receptor IL-17RA/RC and drives the production of a number of inflammatory mediators known to be elevated in psoriasis lesional tissue. IL-17A small molecule inhibitors that block the IL-17A to interact with IL-17R would inhibit the IL-17A signaling in its targeted cells such as keratinocytes. The compound functional activity is evaluated for its impact on IL-17A-induced G-CSF production in human normal keratinocyte (NHK).
Adult normal human keratinocytes are cultured in keratinocyte growth medium (Lonza) in a flask till reaching ~90% confluence, then cells are transferred to a 384-well plate at density of 3000-4000 cell/well. Recombinant human IL-17A (Gibco PHC9174) is pre-incubated with titrated compound or DMSO for 1 h at rt then added to the cell culture plate. The final concentration of IL-17A is 5 ng/mL and DMSO is 0.2%, in the culture containing 5% FBS. Cells are cultured/treated for 24 h at 37° C. Supernatants are collected and G-CSF production is measured through HTRF technology using Human G-CSF Kit (CisBio). G-CSF concentration was extrapolated from the standard curve and IC50 is determined using GraphPad Prism. Cell viability is also evaluated using CellTiter-Glo kit (Promega) and effect of compound on cell viability is compared to DMSO control.

Setting [3] is: class of the average IC50 where tested more than once.
[4] abbreviates: Homo sapiens, Keratinocyte, class of the average IC50 where tested more than once.

Each structure is given as a SMILES string.

Chain of UniProt Q16552 (Q16552 with tags, fused parts or gaps K93Q): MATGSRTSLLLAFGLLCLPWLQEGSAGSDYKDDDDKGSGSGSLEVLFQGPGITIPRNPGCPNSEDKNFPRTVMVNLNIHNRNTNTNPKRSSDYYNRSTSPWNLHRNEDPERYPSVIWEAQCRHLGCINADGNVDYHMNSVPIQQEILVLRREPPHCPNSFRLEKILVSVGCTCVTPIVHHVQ

As a reminder, the IC50 is the point on the concentration scale where inhibition reaches its midpoint. On to `CC(C)n1nccc1C(=O)N[C@H](c1cn2ncc(C[C@H]3C[C@@H](C(F)(F)F)NC3=O)cc2n1)C1CCC(F)(F)CC1` [Example 51, N—((S)-(4,4-Difluorocyclohexyl)(7-(((3S,5S)-2-oxo-5-(trifluoromethyl)pyrrolidin-3-yl)methyl)imidazo[1,2-b]pyridazin-2-yl)methyl)-1-isopropyl-1H-pyrazole-5-carboxamide], for which the “potency increase in the HTRF IC50 when compared to its C-3 epimer” value in test [1] ((S)-configuration on C-3 (cis) vs (R)-epimer (trans): Example 51 vs 52, Example 59 vs 60) is given as “more than 100 fold”. The IC50 in test [1] (setting [3]) was under 400 nM; in test [1] (value in brackets, Table 4), 150 nM; in test [2] (setting [4]), under 400 nM; in test [2] (Homo sapiens, Keratinocyte, value in brackets, Table 4), 50 nM.

On to `C[C@]1(Cc2cnn3cc([C@@H](NC(=O)c4nonc4C4CC4)C4CCC(F)(F)CC4)nc3c2)C[C@@H](C(F)(F)F)NC1=O` (single isomer, unassigned) [Example 97], for which the IC50 in test [1] (setting [3]) and in test [2] (setting [4]) was under 400 nM in each case.

Regarding `CC1(Cc2cnn3cc([C@@H](NC(=O)c4nonc4C4CC4)C4CCC(F)(F)CC4)nc3c2)CCCNC1=O` (single isomer, unassigned) [Example 28, 4-Cyclopropyl-N—((S)-(4,4-difluorocyclohexyl)(7-(((S*)-3-methyl-2-oxopiperidin-3-yl)methyl)imidazo[1,2-b]pyridazin-2-yl)methyl)-1,2,5-oxadiazole-3-carboxamide], the values for the IC50 in test [1] (setting [3]) and in test [2] (setting [3]) were under 400 nM and 400 to 4000 nM, respectively.

As to `C[C@H](c1cnn2cc([C@@H](NC(=O)c3nonc3C3CC3)C3CCC(F)(F)CC3)nc2c1)[C@H]1C[C@@H](C(F)(F)F)NC1=O` (relative stereo) [Example 79, 4-Cyclopropyl-N—((S)-(4,4-difluorocyclohexyl)(7-((S*)—1-((3R*,5S)-2-oxo-5-(trifluoromethyl)pyrrolidin-3-yl)ethyl)imidazo[1,2-b]pyridazin-2-yl)methyl)-1,2,5-oxadiazole-3-carboxamide], the IC50 in test [1] (setting [3]) and in test [2] (setting [4]) was under 400 nM each time.

Consider `O=C(N[C@H](c1cn2ncc([C@H](O)[C@H]3C[C@H](C(F)(F)F)NC3=O)cc2n1)C1CCC(F)(F)CC1)c1nonc1C1CC1` (relative stereo) [Example 63, 4-Cyclopropyl-N—((S)-(4,4-difluorocyclohexyl)(7-((R*)-hydroxy((3R*,5R*)-2-oxo-5-(trifluoromethyl)pyrrolidin-3-yl)methyl)imidazo[1,2-b]pyridazin-2-yl)methyl)-1,2,5-oxadiazole-3-carboxamide], for which the IC50 was 400 to 4000 nM in test [1] (setting [3]) and over 4000 nM in test [2] (setting [4]).

With `O=C(N[C@H](c1cn2ncc(C[C@@H]3C[C@H](C(F)(F)F)NC3=O)cc2n1)C1CCC(F)(F)CC1)c1nonc1C1CC1` (relative stereo) [Example 68, 4-Cyclopropyl-N—((S)-(4,4-difluorocyclohexyl)(7-(((3R*,5R*)-2-oxo-5-(trifluoromethyl)pyrrolidin-3-yl)methyl)imidazo[1,2-b]pyridazin-2-yl)methyl)-1,2,5-oxadiazole-3-carboxamide], the IC50 in test [1] (setting [3]) and in test [2] (setting [4]) was 400 to 4000 nM in each case.

As for `C[C@H]1C[C@H](Cc2cnn3cc([C@@H](NC(=O)c4nonc4C4CC4)C4CCC(F)(F)CC4)nc3c2)C(=O)N1` (relative stereo) [Example 83, 4-Cyclopropyl-N—((S)-(4,4-difluorocyclohexyl)(7-(((3S*,5S*)-5-methyl-2-oxopyrrolidin-3-yl)methyl)imidazo[1,2-b]pyridazin-2-yl)methyl)-1,2,5-oxadiazole-3-carboxamide], the half-inhibitory concentration (IC50) in test [1] (setting [3]) and in test [2] (setting [4]) was under 400 nM each time.

Consider `O=C(N[C@H](c1cn2ncc([C@@H]3C[C@]34C[C@@H](C(F)(F)F)NC4=O)cc2n1)C1CCC(F)(F)CC1)c1nonc1C1CC1` (relative stereo) [Example 39, 4-Cyclopropyl-N—((S)-(4,4-difluorocyclohexyl)(7-((S*,3S*,6S)-4-oxo-6-(trifluoromethyl)-5-azaspiro[2.4]heptan-1-yl)imidazo[1,2-b]pyridazin-2-yl)methyl)-1,2,5-oxadiazole-3-carboxamide], for which the IC50 in test [1] (setting [3]) and in test [2] (setting [4]) was over 4000 nM throughout.

For `O=C(N[C@H](c1cn2ncc(C[C@H]3C(=O)NCC[C@H]3C(F)(F)F)cc2n1)C1CCC(F)(F)CC1)c1nonc1C1CC1` (relative stereo) [Example 44, 4-Cyclopropyl-N—((S)-(4,4-difluorocyclohexyl)(7-(((3R*,4R*)-2-oxo-4-(trifluoromethyl)piperidin-3-yl)methyl)imidazo[1,2-b]pyridazin-2-yl)methyl)-1,2,5-oxadiazole-3-carboxamide], the figures for the IC50 in test [1] (setting [3]) and in test [2] (setting [4]) were 400 to 4000 nM and over 4000 nM, respectively.

Take `CC(C)[C@@H]1C[C@@H](Cc2cnn3cc([C@@H](NC(=O)c4nonc4C4CC4)C4CCC(F)(F)CC4)nc3c2)C(=O)N1` (relative stereo) [Example 95, 4-Cyclopropyl-N—[(S)-(4,4-difluorocyclohexyl)-[7-[[(3R*,5S*)-5-isopropyl-2-oxo-pyrrolidin-3-yl]methyl]imidazo[1,2-b]pyridazin-2-yl]methyl]-1,2,5-oxadiazole-3-carboxamide]: the half-maximal inhibitory concentration (IC50) in test [1] (setting [3]) is 400 to 4000 nM; in test [2] (setting [4]), over 4000 nM.

In the case of `O=C(N[C@H](c1cn2ncc(CC3C[C@@H](C4CC4)NC3=O)cc2n1)C1CCC(F)(F)CC1)c1nonc1C1CC1` (single isomer, unassigned) [Example 43, 4-Cyclopropyl-N—((S)-(7-(((3R*,5S)-5-cyclopropyl-2-oxopyrrolidin-3-yl)methyl)imidazo[1,2-b]pyridazin-2-yl)(4,4-difluorocyclohexyl)methyl)-1,2,5-oxadiazole-3-carboxamide], the results for the IC50 in test [1] (setting [3]) and in test [2] (setting [3]) were 400 to 4000 nM and over 4000 nM, respectively.

`Cc1nonc1C(=O)N[C@H](c1cn2ncc(C[C@H]3CC[C@@H](C(F)(F)F)NC3=O)cc2n1)C1CCC(F)(F)CC1` (relative stereo) [Example 47, N—((S)-(4,4-difluorocyclohexyl)7-(((3R*,6S*)-2-oxo-6-(trifluoromethyl)piperidin-3-yl)methyl)imidazo[1,2-b]pyridazin-2-yl)methyl)-4-methyl-1,2,5-oxadiazole-3-carboxamide]: the IC50 is under 400 nM in test [1] (setting [3]) and 400 to 4000 nM in test [2] (setting [4]).

Regarding `C[C@@H](c1cnn2cc([C@@H](NC(=O)c3nonc3C3CC3)C3CCC(F)(F)CC3)nc2c1)[C@H]1C[C@@H](C(F)(F)F)NC1=O` (relative stereo) [Example 78, 4-Cyclopropyl-N—((S)-(4,4-difluorocyclohexyl)(7-((R*)-1-((3R*,5S)-2-oxo-5-(trifluoromethyl)pyrrolidin-3-yl)ethyl)imidazo[1,2-b]pyridazin-2-yl)methyl)-1,2,5-oxadiazole-3-carboxamide], the IC50 in test [1] (setting [3]) and in test [2] (setting [4]) was over 4000 nM in each case.

For `N#CCC1(Cc2cnn3cc([C@@H](NC(=O)c4nonc4C4CC4)C4CCC(F)(F)CC4)nc3c2)C[C@@H](C(F)(F)F)NC1=O` (single isomer, unassigned) [Example 104, N—((S)-(7-(((3S*,5S)-3-(Cyanomethyl)-2-oxo-5-(trifluoromethyl)pyrrolidin-3-yl)methyl)imidazo[1,2-b]pyridazin-2-yl)(4,4-difluorocyclohexyl)methyl)-4-cyclopropyl-1,2,5-oxadiazole-3-carboxamide], the half-inhibitory concentration (IC50) in test [1] (setting [3]) and in test [2] (setting [4]) was under 400 nM each time.
